Data reported in patent US8569336B2, “Compounds for the treatment of inflammatory disorders” (priority 2008, dated 2013).
pIC50, pKi: −log10 of the molar value. Where two headings read alike, the source gives them in different places.

Experiments:
[1] = test system: TNF-α production from human whole blood; experiment: Inhibition of TNF-α production from human whole blood (hWBA), LPS stimulated, ELISA; type: cell-based; conditions: Homo sapiens, TNF-α by ELISA, read-out: hWBA (IC50)
[2] = molecular target: T1, purified catalytic domain of recombinant human TACE (rhTACEc) (Homo sapiens, UniProt P78536, N452Q/S266A); experiment: TACE kinetic assay: cleavage of internally quenched peptide substrate TNF-FRET 2 (Ki); type: biochemical; conditions: TNF-FRET 2 substrate
T1 construct: 6xHis (C); made in house; host or cells: baculovirus/Hi5 insect cells

[3] = LPS-stimulated human whole blood
[4] = 3.5 h, human whole blood diluted 1:1, LPS stimulated, 3.5 h

T1 sequence (P78536 215-477 S266A/N452Q): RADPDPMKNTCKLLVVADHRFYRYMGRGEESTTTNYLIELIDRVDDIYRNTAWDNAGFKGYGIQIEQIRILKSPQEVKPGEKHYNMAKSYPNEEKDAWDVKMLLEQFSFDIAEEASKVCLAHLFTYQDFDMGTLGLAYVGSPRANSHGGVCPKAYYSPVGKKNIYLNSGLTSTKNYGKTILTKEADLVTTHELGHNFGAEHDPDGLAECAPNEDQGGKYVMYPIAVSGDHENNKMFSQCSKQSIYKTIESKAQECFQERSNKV

COc1ccc2c(c1F)C(=O)N(C[C@@]1(c3cc4nc(C(N)=O)ccc4o3)NC(=O)NC1=O)C2 [Compound 1904]
pIC50 [1, 3]: 6.88
pKi ([2]; read-out: Ki): 9.21

CCNc1nnc(-c2ccc3oc([C@]4(CN5Cc6ccc(OC)cc6C5=O)NC(=O)NC4=O)cc3n2)o1 [Compound 1906]
pIC50 [1, 3]: 6.22
pKi ([2]; read-out: Ki): 9.11

COc1ccc2c(c1)C(=O)N(C[C@@]1(c3cc4nc(C(=O)NC5CCN(C)CC5)ccc4o3)NC(=O)NC1=O)C2 [Compound 1911]
pIC50 [1, 3]: 6.50
pKi ([2]; read-out: Ki): 8.88

COc1ccc2c(c1)C(=O)N(C[C@@]1(c3cc4ncc(CNCc5ccccc5)cc4o3)NC(=O)NC1=O)C2 [Compound 1912]
pIC50 [1, 3]: 5.49
pKi ([2]; read-out: Ki): 8.65

COc1ccc2c(c1F)C(=O)N(C[C@@]1(c3cc4nc(N5CCOCC5)c(F)cc4o3)NC(=O)NC1=O)C2 [Compound 1913]
pIC50 [1, 3]: 6.18
pKi ([2]; Ki): 9.28

COc1ccc2c(c1)C(=O)N(CC1([C@H]3C[C@@H](c4ccccc4)C3)NC(=O)NC1=O)C2 (some centres unmarked) [Compound 1914]
pIC50 [1, 3]: 4.00
pKi ([2]; read-out: Ki): 7.58

COc1ccc2c(c1)C(=O)N(CC1([C@H]3C[C@H](c4ccccc4)C3)NC(=O)NC1=O)C2 (some centres unmarked) [Compound 1915]
pIC50 [1, 3]: 4.00
pKi ([2]; read-out: Ki): 8.00

CCNc1nnc(-c2ccc3oc([C@]4(CN5Cc6ccc(OC)c(F)c6C5=O)NC(=O)NC4=O)cc3n2)o1 [Compound 1916]
pIC50 [1, 3]: 6.51
pKi ([2]; read-out: Ki): 9.09

COc1ccc2c(c1F)C(=O)N(C[C@@]1(c3cc4nc(C)c(Br)cc4o3)NC(=O)NC1=O)C2 [Compound 1917]
pIC50 [1, 3]: 5.87
pKi ([2]; read-out: Ki): 9.30

COc1ccc2c(c1OC)C(=O)N(C[C@@]1(c3cc4nc(C)c(Br)cc4o3)NC(=O)NC1=O)C2 [Compound 1918]
pIC50 [1, 3]: 4.47
pKi ([2]; read-out: Ki): 8.61

CCN1CCN(c2cc3oc([C@]4(CN5Cc6ccc(OC)c(F)c6C5=O)NC(=O)NC4=O)cc3nc2C)CC1 [Compound 1920]
pIC50 [1, 3]: 6.17
pKi ([2]; read-out: Ki): 8.67

COc1ccc2c(c1)C(=O)N(C[C@@]1(c3cc4nc(C(=O)NC5CC5)ccc4o3)NC(=O)NC1=O)C2 [Compound 1926]
pIC50 [1, 3]: 6.44
pKi ([2]; read-out: Ki): 9.92

COc1ccc2c(c1)C(=O)N(C[C@@]1(c3cc4nc(C(=O)NCCN(C)C)ccc4o3)NC(=O)NC1=O)C2 [Compound 1927]
pIC50 [1, 3]: 6.25
pKi ([2]; read-out: Ki): 9.06

COC(=O)c1cnc2cc([C@]3(CN4Cc5ccc(OC)cc5C4=O)NC(=O)NC3=O)oc2c1 [Compound 1928]
pIC50 [1, 3]: 6.08
pKi ([2]; read-out: Ki): 9.28

COc1ccc2c(c1)C(=O)N(C[C@@]1(c3cc4ncc(C(N)=O)cc4o3)NC(=O)NC1=O)C2 [Compound 1929]
pIC50 [1, 3]: 6.76
pKi ([2]; Ki): 9.43

COc1ccc2c(c1)C(=O)N(C[C@@]1(c3cc4ncc(C(=O)NC5CC5)cc4o3)NC(=O)NC1=O)C2 [Compound 1931]
pIC50 [1, 3]: 6.49
pKi ([2]; read-out: Ki): 9.25

COc1ccc2c(c1)C(=O)N(C[C@@]1(c3cc4nc(NS(C)(=O)=O)ccc4o3)NC(=O)NC1=O)C2 [Compound 1937]
pIC50 [1, 3]: 6.72
pKi ([2]; read-out: Ki): 8.66

CCNC(=O)Nc1ccc2oc([C@]3(CN4Cc5ccc(OC)cc5C4=O)NC(=O)NC3=O)cc2n1 [Compound 1939]
pIC50 [1, 3]: 6.17
pKi ([2]; read-out: Ki): 8.95

COc1ccc2c(c1)C(=O)N(C[C@@]1(c3oc4cccnc4c3-c3ncccc3O)NC(=O)NC1=O)C2 [Compound 1940]
pIC50 [1, 3]: 6.18
pKi ([2]; read-out: Ki): 9.12

COc1ccc2c(c1)C(=O)N(C[C@@]1(c3cc4ncc(CO)cc4o3)NC(=O)NC1=O)C2 [Compound 1941]
pIC50 [1, 3]: 6.22
pKi ([2]; read-out: Ki): 9.23

COc1ccc2c(c1)C(=O)N(C[C@@]1(c3cc4ncc(C5=NCCN5)cc4o3)NC(=O)NC1=O)C2 [Compound 1942]
pIC50 [1, 3]: 5.41
pKi ([2]; Ki): 8.68

COc1ccc2c(c1)C(=O)N(C[C@@]1(c3cc4ncc(-c5ncc[nH]5)cc4o3)NC(=O)NC1=O)C2 [Compound 1943]
pIC50 [1, 3]: 6.13
pKi ([2]; read-out: Ki): 9.27

CCNC(=O)OCc1cnc2cc([C@]3(CN4Cc5ccc(OC)cc5C4=O)NC(=O)NC3=O)oc2c1 [Compound 1944]
pIC50 [1, 3]: 5.65
pKi ([2]; read-out: Ki): 9.16

COc1ccc2c(c1)C(=O)N(C[C@@]1(c3cc4nc(CO)ccc4o3)NC(=O)NC1=O)C2 [Compound 1945]
pIC50 [1, 3]: 6.14
pKi ([2]; read-out: Ki): 9.16

COc1ccc2c(c1)C(=O)N(C[C@@]1(c3cc4[nH]c(=O)ccc4o3)NC(=O)NC1=O)C2 [Compound 1946]
pIC50 [1, 3]: 6.27
pKi ([2]; read-out: Ki): 9.43

COc1ccc2c(c1)C(=O)N(C[C@@]1(c3cc4nc(-c5c(C)n[nH]c5C)ccc4o3)NC(=O)NC1=O)C2 [Compound 2101]
pIC50 [1, 4]: 6.69
pKi ([2]; read-out: Ki): 9.85

COc1ccc2c(c1)C(=O)N(C[C@@]1(c3cc4nc(-c5cc[nH]n5)ccc4o3)NC(=O)NC1=O)C2 [Compound 2103]
pIC50 [1, 4]: 6.43
pKi ([2]; read-out: Ki): 9.47

COc1ccc2c(c1)C(=O)N(C[C@@]1(c3cc4nc(N5CCCC5)ccc4o3)NC(=O)NC1=O)C2 [Compound 2106]
pIC50 [1, 4]: 6.17
pKi ([2]; read-out: Ki): 9.37

COc1ccc2c(c1)C(=O)N(C[C@@]1(c3cc4nc(N5CCC(OC)(OC)CC5)ccc4o3)NC(=O)NC1=O)C2 [Compound 2109]
pIC50 [1, 4]: 6.79
pKi ([2]; read-out: Ki): 9.12

COc1ccc2c(c1)C(=O)N(C[C@@]1(c3cc4nc(Nc5c(C)cnn5C)ccc4o3)NC(=O)NC1=O)C2 [Compound 2111]
pIC50 [1, 4]: 5.95
pKi ([2]; read-out: Ki): 9.12

COc1ccc2c(c1)C(=O)N(C[C@@]1(c3cc4nc(Nc5nccs5)ccc4o3)NC(=O)NC1=O)C2 [Compound 2113]
pIC50 [1, 4]: 5.85
pKi ([2]; read-out: Ki): 9.21

COc1ccc2c(c1)C(=O)N(C[C@@]1(c3cc4nc(N5CCNC(=O)C5)ccc4o3)NC(=O)NC1=O)C2 [Compound 2114]
pIC50 [1, 4]: 6.72
pKi ([2]; read-out: Ki): 9.51

COc1ccc2c(c1F)C(=O)N(C[C@@]1(c3cc4nc(-c5cn[nH]c5)ccc4o3)NC(=O)NC1=O)C2 [Compound 2121]
pIC50 [1, 4]: 6.99
pKi ([2]; read-out: Ki): 9.58

COc1ccc2c(c1)C(=O)N(C[C@@]1(c3cc4nc(N5CCNCC5)ccc4o3)NC(=O)NC1=O)C2 [Compound 2126]
pIC50 [1, 4]: 6.71
pKi ([2]; read-out: Ki): 9.18

COc1ccc2c(c1)C(=O)N(C[C@@]1(c3cc4nc(N5CCNC5=O)ccc4o3)NC(=O)NC1=O)C2 [Compound 2127]
pIC50 [1, 4]: 6.65
pKi ([2]; read-out: Ki): 9.36

COc1ccc2c(c1)C(=O)N(C[C@@]1(c3cc4nc(Nc5ccccn5)ccc4o3)NC(=O)NC1=O)C2 [Compound 2128]
pIC50 [1, 4]: 5.72
pKi ([2]; read-out: Ki): 9.05

COc1ccc2c(c1)C(=O)N(C[C@@]1(c3cc4nc(Nc5c(C)noc5C)ccc4o3)NC(=O)NC1=O)C2 [Compound 2133]
pIC50 [1, 4]: 6.34
pKi ([2]; read-out: Ki): 9.20

COc1ccc2c(c1)C(=O)N(C[C@@]1(c3cc4nc(N5CCCNC5=O)ccc4o3)NC(=O)NC1=O)C2 [Compound 2134]
pIC50 [1, 4]: 6.94
pKi ([2]; read-out: Ki): 9.33

COc1ccc2c(c1)C(=O)N(C[C@@]1(c3cc4nc(Nc5ccncc5)ccc4o3)NC(=O)NC1=O)C2 [Compound 2136]
pIC50 [1, 4]: 6.61
pKi ([2]; read-out: Ki): 9.37

COc1ccc2c(c1)C(=O)N(C[C@@]1(c3cc4nc(NC(=O)[C@@H](C)O)ccc4o3)NC(=O)NC1=O)C2 [Compound 2137]
pIC50 [1, 4]: 6.51
pKi ([2]; read-out: Ki): 9.44

COc1ccc2c(c1)C(=O)N(C[C@@]1(c3cc4nc(N(C)c5ccncc5)ccc4o3)NC(=O)NC1=O)C2 [Compound 2138]
pIC50 [1, 4]: 6.28
pKi ([2]; read-out: Ki): 9.06

CNC1CCN(c2ccc3oc([C@]4(CN5Cc6ccc(OC)cc6C5=O)NC(=O)NC4=O)cc3n2)CC1 [Compound 2139]
pIC50 [1, 4]: 6.41
pKi ([2]; read-out: Ki): 8.84

COc1ccc2c(c1)C(=O)N(C[C@@]1(c3cc4nc(N5CCN(c6ccncc6)CC5)ccc4o3)NC(=O)NC1=O)C2 [Compound 2143]
pIC50 [1, 4]: 6.26
pKi ([2]; read-out: Ki): 9.01

COc1ccc2c(c1)C(=O)N(C[C@@]1(c3cc4nc(Nc5nccc(O)n5)ccc4o3)NC(=O)NC1=O)C2 [Compound 2144]
pIC50 [1, 4]: 6.57
pKi ([2]; read-out: Ki): 9.71

COc1ccc2c(c1)C(=O)N(C[C@@]1(c3cc4nc(-c5cc6ccccc6[nH]5)ccc4o3)NC(=O)NC1=O)C2 [Compound 2149]
pIC50 [1, 4]: 6.27
pKi ([2]; read-out: Ki): 9.54

COc1ccc2c(c1)C(=O)N(C[C@@]1(c3cc4nc(-c5ccc6nccn6c5)ccc4o3)NC(=O)NC1=O)C2 [Compound 2150]
pIC50 [1, 4]: 6.08
pKi ([2]; read-out: Ki): 9.09

COc1ccc2c(c1)C(=O)N(C[C@@]1(c3cc4nc(-c5cnc(N(C)C)nc5)ccc4o3)NC(=O)NC1=O)C2 [Compound 2152]
pIC50 [1, 4]: 6.17
pKi ([2]; read-out: Ki): 9.43

COc1ccc2c(c1)C(=O)N(C[C@@]1(c3cc4nc(N5C(=O)CC[C@@H]5CO)ccc4o3)NC(=O)NC1=O)C2 [Compound 2157]
pIC50 [1, 4]: 6.42
pKi ([2]; read-out: Ki): 9.14

COc1ccc2c(c1)C(=O)N(C[C@@]1(c3cc4nc(-c5cccs5)ccc4o3)NC(=O)NC1=O)C2 [Compound 2162]
pIC50 [1, 4]: 5.85
pKi ([2]; Ki): 9.90
